Peptide text beside a SMILES is read from it.
Tested on: Botrytis cinerea (B05.10)
Assay: Resazurin antifungal assay of 180 alpha-factor peptide variants towards Botrytis (Example 2)
Assay type: cell-based
Conditions: % inhibition of fungal growth, Botrytis conidia, resazurin; for Inhibition at 10 μM: peptide 10 μM; for Inhibition at 15 μM: peptide 15 μM; for Inhibition at 20 μM: peptide 20 μM; for Inhibition at 50 μM: peptide 50 μM; for Inhibition at 100 μM: peptide 100 μM
How it was run: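 Resazurin viability read-out (570/620 nm fluorescence) after a 24 h, 20° C incubation of B05.10 conidia, 5000 per well, with peptide at final 10-100 μM. Growth inhibition (%) was derived by subtracting conidia-only fluorescence; four replicates per treatment.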

CSCC[C@H](NC(=O)[C@H](Cc1c[nH]cn1)NC(=O)[C@@H](N)CCCCN)C(=O)N[C@@H](CC(C)C)C(=O)N[C@@H](CCCNC(=N)N)C(=O)N[C@@H](Cc1ccccc1)C(=O)N[C@@H](CCCCN)C(=O)N1CCC[C@H]1C(=O)NCC(=O)N[C@@H](CCC(N)=O)C(=O)N1CCC[C@H]1C(=O)N[C@@H](CCSC)C(=O)N[C@@H](Cc1ccc(O)cc1)C(=O)O [compound 84] (H-KHMLRFKPGQPMY-OH; N-terminus and C-terminus assumed)
Inhibition at 10 μM: <90% | Inhibition at 15 μM: <90% | Inhibition at 20 μM: 97.08% | Inhibition at 50 μM: 100% | Inhibition at 100 μM: 100%

CSCC[C@H](NC(=O)[C@@H]1CCCN1C(=O)[C@H](CCC(=O)O)NC(=O)CNC(=O)[C@@H]1CCCN1C(=O)[C@H](CCCCN)NC(=O)[C@H](Cc1ccccc1)NC(=O)[C@H](CCCCN)NC(=O)[C@H](CC(C)C)NC(=O)[C@H](Cc1ccccc1)NC(=O)[C@H](Cc1c[nH]cn1)NC(=O)[C@@H](N)Cc1c[nH]c2ccccc12)C(=O)N[C@@H](Cc1ccc(O)cc1)C(=O)O [compound 85] (H-WHFLKFKPGEPMY-OH; N-terminus and C-terminus assumed)
Inhibition at 10 μM: <90% | Inhibition at 20 μM: <90% | Inhibition at 50 μM: 100% | Inhibition at 100 μM: 100%

CC[C@H](C)[C@H](NC(=O)[C@H](CCCCN)NC(=O)[C@H](CC(C)C)NC(=O)[C@H](Cc1ccccc1)NC(=O)[C@H](Cc1c[nH]cn1)NC(=O)[C@@H](N)CCCCN)C(=O)N[C@@H](CCCCN)C(=O)N1CCC[C@H]1C(=O)NCC(=O)N[C@@H](CCC(N)=O)C(=O)N1CCC[C@H]1C(=O)N[C@@H](CCSC)C(=O)N[C@@H](Cc1ccc(O)cc1)C(=O)O [compound 86] (H-KHFLKIKPGQPMY-OH; N-terminus and C-terminus assumed)
Inhibition at 10 μM: <90% | Inhibition at 15 μM: <90% | Inhibition at 20 μM: 99.49% | Inhibition at 50 μM: 100% | Inhibition at 100 μM: 100%

CSCC[C@H](NC(=O)[C@@H]1CCCN1C(=O)[C@H](CCC(N)=O)NC(=O)CNC(=O)[C@@H]1CCCN1C(=O)[C@H](CCCCN)NC(=O)[C@H](Cc1ccccc1)NC(=O)[C@H](CCCCN)NC(=O)[C@H](CC(C)C)NC(=O)[C@@H](NC(=O)[C@H](Cc1c[nH]cn1)NC(=O)[C@@H](N)CCCCN)C(C)C)C(=O)N[C@@H](Cc1ccc(O)cc1)C(=O)O [compound 87] (H-KHVLKFKPGQPMY-OH; N-terminus and C-terminus assumed)
Inhibition at 10 μM: <90% | Inhibition at 15 μM: <90% | Inhibition at 20 μM: 98.89% | Inhibition at 50 μM: 100% | Inhibition at 100 μM: 100%

CSCC[C@H](NC(=O)[C@@H]1CCCN1C(=O)[C@H](CCC(N)=O)NC(=O)CNC(=O)[C@@H]1CCCN1C(=O)[C@H](CCCCN)NC(=O)[C@H](CC(C)C)NC(=O)[C@H](CCCNC(=N)N)NC(=O)[C@H](CC(C)C)NC(=O)[C@H](CC(C)C)NC(=O)[C@H](Cc1c[nH]cn1)NC(=O)[C@@H](N)CCCCN)C(=O)N[C@@H](Cc1ccc(O)cc1)C(=O)O [compound 88] (H-KHLLRLKPGQPMY-OH; N-terminus and C-terminus assumed)
Inhibition at 10 μM: <90% | Inhibition at 20 μM: <90% | Inhibition at 50 μM: 99.75% | Inhibition at 100 μM: 100%

CC[C@H](C)[C@H](NC(=O)[C@H](CCCCN)NC(=O)[C@H](Cc1ccccc1)NC(=O)[C@H](CCC(=O)O)NC(=O)[C@H](CC(C)C)NC(=O)[C@H](CO)NC(=O)[C@H](Cc1c[nH]cn1)NC(=O)[C@@H](N)Cc1c[nH]c2ccccc12)C(=O)NCC(=O)N[C@@H](CCC(N)=O)C(=O)NCC(=O)N[C@@H](CCSC)C(=O)N[C@@H](Cc1ccc(O)cc1)C(=O)O [compound 89] (H-WHSLEFKIGQGMY-OH; N-terminus and C-terminus assumed)
Inhibition at 10 μM: <90% | Inhibition at 20 μM: <90% | Inhibition at 50 μM: 99.55% | Inhibition at 100 μM: 100%

CC[C@H](C)[C@H](NC(=O)[C@H](CCC(N)=O)NC(=O)[C@H](CC(C)C)NC(=O)[C@H](Cc1ccccc1)NC(=O)[C@H](Cc1c[nH]cn1)NC(=O)[C@@H](N)Cc1c[nH]c2ccccc12)C(=O)N[C@@H](CCCCN)C(=O)N1CCC[C@H]1C(=O)NCC(=O)N[C@@H](CCC(N)=O)C(=O)NCC(=O)N[C@@H](CCSC)C(=O)N[C@@H](Cc1ccc(O)cc1)C(=O)O [compound 90] (H-WHFLQIKPGQGMY-OH; N-terminus and C-terminus assumed)
Inhibition at 10 μM: <90% | Inhibition at 20 μM: <90% | Inhibition at 50 μM: 99.27% | Inhibition at 100 μM: 100%

CSCC[C@H](NC(=O)[C@@H]1CCCN1C(=O)[C@H](CCC(N)=O)NC(=O)CNC(=O)[C@H](CC(N)=O)NC(=O)[C@H](CCCCN)NC(=O)[C@H](CC(C)C)NC(=O)[C@H](CCCCN)NC(=O)[C@H](CC(C)C)NC(=O)[C@H](Cc1c[nH]c2ccccc12)NC(=O)[C@H](CCC(N)=O)NC(=O)[C@@H](N)CCCCN)C(=O)N[C@@H](Cc1ccc(O)cc1)C(=O)O [compound 91] (H-KQWLKLKNGQPMY-OH; N-terminus and C-terminus assumed)
Inhibition at 10 μM: <90% | Inhibition at 20 μM: <90% | Inhibition at 50 μM: 98.66% | Inhibition at 100 μM: 100%

CSCC[C@H](NC(=O)[C@@H]1CCCN1C(=O)[C@H](CCC(N)=O)NC(=O)CNC(=O)[C@@H]1CCCN1C(=O)[C@H](CCCCN)NC(=O)[C@H](Cc1ccccc1)NC(=O)[C@H](CCCNC(=N)N)NC(=O)[C@H](CC(C)C)NC(=O)[C@@H](NC(=O)[C@H](Cc1c[nH]cn1)NC(=O)[C@@H](N)Cc1c[nH]c2ccccc12)[C@@H](C)O)C(=O)N[C@@H](Cc1ccc(O)cc1)C(=O)O [compound 92] (H-WHTLRFKPGQPMY-OH; N-terminus and C-terminus assumed)
Inhibition at 10 μM: <90% | Inhibition at 20 μM: <90% | Inhibition at 50 μM: 98.44% | Inhibition at 100 μM: 98.95%

CSCC[C@H](NC(=O)[C@@H]1CCCN1C(=O)[C@H](CCC(N)=O)NC(=O)CNC(=O)[C@H](CCCNC(=N)N)NC(=O)[C@H](CCCCN)NC(=O)[C@H](CC(C)C)NC(=O)[C@H](CCC(N)=O)NC(=O)[C@H](CC(C)C)NC(=O)[C@@H](NC(=O)[C@H](Cc1c[nH]cn1)NC(=O)[C@@H](N)CCCCN)[C@@H](C)O)C(=O)N[C@@H](Cc1ccc(O)cc1)C(=O)O [compound 93] (H-KHTLQLKRGQPMY-OH; N-terminus and C-terminus assumed)
Inhibition at 10 μM: <90% | Inhibition at 20 μM: <90% | Inhibition at 50 μM: 97.77% | Inhibition at 100 μM: 100%

CSCC[C@H](NC(=O)[C@@H]1CCCN1C(=O)[C@H](CCC(N)=O)NC(=O)CNC(=O)[C@@H]1CCCN1C(=O)[C@H](CCCCN)NC(=O)[C@H](Cc1ccccc1)NC(=O)[C@H](CO)NC(=O)[C@H](CC(C)C)NC(=O)[C@H](Cc1ccc(O)cc1)NC(=O)[C@H](Cc1c[nH]cn1)NC(=O)[C@@H](N)CCCCN)C(=O)N[C@@H](Cc1ccc(O)cc1)C(=O)O [compound 94] (H-KHYLSFKPGQPMY-OH; N-terminus and C-terminus assumed)
Inhibition at 10 μM: <90% | Inhibition at 20 μM: <90% | Inhibition at 50 μM: 97.32% | Inhibition at 100 μM: 100%

CSCC[C@H](NC(=O)[C@@H]1CCCN1C(=O)[C@H](CCC(N)=O)NC(=O)CNC(=O)[C@@H]1CCCN1C(=O)[C@H](CCCCN)NC(=O)[C@H](Cc1ccccc1)NC(=O)[C@@H](NC(=O)[C@H](CC(C)C)NC(=O)[C@H](CC(C)C)NC(=O)[C@H](Cc1c[nH]cn1)NC(=O)[C@@H](N)CCCCN)[C@@H](C)O)C(=O)N[C@@H](Cc1ccc(O)cc1)C(=O)O [compound 95] (H-KHLLTFKPGQPMY-OH; N-terminus and C-terminus assumed)
Inhibition at 10 μM: <90% | Inhibition at 20 μM: <90% | Inhibition at 50 μM: 97.12% | Inhibition at 100 μM: 99.99%

CSCC[C@H](NC(=O)[C@@H]1CCCN1C(=O)[C@H](CCC(N)=O)NC(=O)CNC(=O)[C@@H]1CCCN1C(=O)[C@H](CCCCN)NC(=O)[C@H](CC(C)C)NC(=O)[C@@H](NC(=O)[C@H](CC(C)C)NC(=O)[C@H](Cc1ccccc1)NC(=O)[C@H](Cc1c[nH]cn1)NC(=O)[C@@H](N)CCCCN)[C@@H](C)O)C(=O)N[C@@H](Cc1ccc(O)cc1)C(=O)O [compound 96] (H-KHFLTLKPGQPMY-OH; N-terminus and C-terminus assumed)
Inhibition at 10 μM: <90% | Inhibition at 20 μM: <90% | Inhibition at 50 μM: 95.86% | Inhibition at 100 μM: 99.87%

CSCC[C@H](NC(=O)[C@@H]1CCCN1C(=O)[C@H](C)NC(=O)CNC(=O)[C@@H]1CCCN1C(=O)[C@H](CCCNC(=N)N)NC(=O)[C@H](Cc1ccccc1)NC(=O)[C@H](CCC(N)=O)NC(=O)[C@@H](NC(=O)[C@H](Cc1c[nH]c2ccccc12)NC(=O)[C@H](Cc1c[nH]cn1)NC(=O)[C@@H](N)Cc1c[nH]c2ccccc12)C(C)C)C(=O)N[C@@H](Cc1ccc(O)cc1)C(=O)O [compound 97] (H-WHWVQFRPGAPMY-OH; N-terminus and C-terminus assumed)
Inhibition at 10 μM: <90% | Inhibition at 20 μM: <90% | Inhibition at 50 μM: 95.75% | Inhibition at 100 μM: 100%

CSCC[C@H](NC(=O)[C@@H]1CCCN1C(=O)[C@H](CCC(N)=O)NC(=O)CNC(=O)[C@H](CC(N)=O)NC(=O)[C@H](CCCCN)NC(=O)[C@H](CC(C)C)NC(=O)[C@H](CO)NC(=O)CNC(=O)[C@H](Cc1c[nH]c2ccccc12)NC(=O)[C@H](CCCCN)NC(=O)[C@@H](N)Cc1c[nH]c2ccccc12)C(=O)N[C@@H](Cc1ccc(O)cc1)C(=O)O [compound 98] (H-WKWGSLKNGQPMY-OH; N-terminus and C-terminus assumed)
Inhibition at 10 μM: <90% | Inhibition at 20 μM: <90% | Inhibition at 50 μM: 95.59% | Inhibition at 100 μM: 100%

From US20250382332A1, “NOVEL ALPHA-FACTOR BASED PEPTIDES WITH ANTIFUNGAL ACTIVITY” (INVAIO SCIENCES, INC., priority 2024, published 2025)
